From ChEMBL document CHEMBL3885861, “Open TG-GATES”

Species on record: Rattus norvegicus
Test: Open TG-GATES - Regimen: Single
Type: toxicity, organism-based, Sprague-Dawley
Parameters: regimen Single, gender Male, age 6 weeks
Details: in vivo, po, 0 mg/kg, route gavage, dose level Control; for APTT / Bas / Eos / Fbg / Hb / Ht / Lym / MCH / MCHC / MCV / Mono / Neu / PT / Plat / RBC / Ret / WBC: tissue Blood; for KIDNEY_L / KIDNEY_R / KIDNEY_TOTAL: tissue Kidney; for LIVER: tissue Liver; for A/G / ALP / ALT / AST / BUN / CRE / Ca / Cl / DBIL / GLC / IP / K / LDH / Na / PL / RALB / TBIL / TC / TG / TP / gamma-GTP: tissue Plasma

CCN1CCCC1CNC(=O)c1cc(S(N)(=O)=O)ccc1OC (configuration not stated) [SULPIRIDE]
TERMINAL_BW (3 h): 201.8 g
APTT (3 h): 17.6 s
Bas (3 h): 0%
Eos (3 h): 0.6%
Fbg (3 h): 247.8 mg/dL
Hb (3 h): 13.4 g/dL
Ht (3 h): 41.4%
Lym (3 h): 80.2%
MCH (3 h): 20.9 pg
MCHC (3 h): 32.3%
MCV (3 h): 64.8 fL
Mono (3 h): 2.4%
Neu (3 h): 16%
PT (3 h): 14.1 s
Plat (3 h): 117.7 x10_4/uL
RBC (3 h): 639.8 x10_4/ul
Ret (3 h): 7.5%
WBC (3 h): 81.5 x10_2/uL
KIDNEY_L (3 h): 0.9 g
KIDNEY_R (3 h): 0.9 g
KIDNEY_TOTAL (3 h): 1.9 g
LIVER (3 h): 8.6 g
A/G (3 h): 0.9
ALP (3 h): 1902.2 IU/L
ALT (3 h): 49 IU/L
AST (3 h): 92.6 IU/L
BUN (3 h): 10.6 mg/dL
CRE (3 h): 0.2 mg/dL
Ca (3 h): 11 mg/dL
Cl (3 h): 105.8 meq/L
DBIL (3 h): 0.01 mg/dL
GLC (3 h): 177 mg/dL
IP (3 h): 8.9 mg/dL
K (3 h): 4.5 meq/L
LDH (3 h): 173.6 IU/L
Na (3 h): 140.8 meq/L
PL (3 h): 116 mg/dL
RALB (3 h): 2.4 g/dL
TBIL (3 h): 0.074 mg/dL
TC (3 h): 60.8 mg/dL
TG (3 h): 50.2 mg/dL
TP (3 h): 5.1 g/dL
gamma-GTP (3 h): 1.6 IU/L
TERMINAL_BW (6 h): 198.5 g
APTT (6 h): 17.4 s
Bas (6 h): 0.2%
Eos (6 h): 0.8%
Fbg (6 h): 276.2 mg/dL
Hb (6 h): 13.3 g/dL
Ht (6 h): 41.6%
Lym (6 h): 79.4%
MCH (6 h): 20.5 pg
MCHC (6 h): 32%
MCV (6 h): 64.1 fL
Mono (6 h): 2.4%
Neu (6 h): 16.4%
PT (6 h): 13.5 s
Plat (6 h): 123.5 x10_4/uL
RBC (6 h): 649.6 x10_4/ul
Ret (6 h): 8%
WBC (6 h): 87.4 x10_2/uL
KIDNEY_L (6 h): 0.9 g
KIDNEY_R (6 h): 0.9 g
KIDNEY_TOTAL (6 h): 1.8 g
LIVER (6 h): 8.6 g
A/G (6 h): 0.9
ALP (6 h): 1354.6 IU/L
ALT (6 h): 38.2 IU/L
AST (6 h): 78 IU/L
BUN (6 h): 9 mg/dL
CRE (6 h): 0.2 mg/dL
Ca (6 h): 10.7 mg/dL
Cl (6 h): 105 meq/L
DBIL (6 h): 0.01 mg/dL
GLC (6 h): 192.2 mg/dL
IP (6 h): 9.3 mg/dL
K (6 h): 4.3 meq/L
LDH (6 h): 105 IU/L
Na (6 h): 141.2 meq/L
PL (6 h): 128.6 mg/dL
RALB (6 h): 2.5 g/dL
TBIL (6 h): 0.072 mg/dL
TC (6 h): 72.2 mg/dL
TG (6 h): 53 mg/dL
TP (6 h): 5.2 g/dL
gamma-GTP (6 h): 1.8 IU/L
TERMINAL_BW (9 h): 200.2 g
APTT (9 h): 16.9 s
Bas (9 h): 0.2%
Eos (9 h): 1%
Fbg (9 h): 302.8 mg/dL
Hb (9 h): 13.3 g/dL
Ht (9 h): 41.6%
Lym (9 h): 74.2%
MCH (9 h): 19.8 pg
MCHC (9 h): 32%
MCV (9 h): 62 fL
Mono (9 h): 2.6%
Neu (9 h): 21.6%
PT (9 h): 13.5 s
Plat (9 h): 126.7 x10_4/uL
RBC (9 h): 670.8 x10_4/ul
Ret (9 h): 7.8%
WBC (9 h): 76.7 x10_2/uL
KIDNEY_L (9 h): 0.9 g
KIDNEY_R (9 h): 0.9 g
KIDNEY_TOTAL (9 h): 1.8 g
LIVER (9 h): 8.1 g
A/G (9 h): 0.9
ALP (9 h): 1441.6 IU/L
ALT (9 h): 69 IU/L
AST (9 h): 70.4 IU/L
BUN (9 h): 7.6 mg/dL
CRE (9 h): 0.2 mg/dL
Ca (9 h): 10.7 mg/dL
Cl (9 h): 105.4 meq/L
DBIL (9 h): 0.006 mg/dL
GLC (9 h): 170.8 mg/dL
IP (9 h): 9.8 mg/dL
K (9 h): 3.9 meq/L
LDH (9 h): 132.4 IU/L
Na (9 h): 141.4 meq/L
PL (9 h): 125 mg/dL
RALB (9 h): 2.5 g/dL
TBIL (9 h): 0.074 mg/dL
TC (9 h): 70.8 mg/dL
TG (9 h): 61 mg/dL
TP (9 h): 5.3 g/dL
gamma-GTP (9 h): 1.4 IU/L
TERMINAL_BW (24 h): 216.8 g
APTT (24 h): 17.3 s
Bas (24 h): 0.4%
Eos (24 h): 1%
Fbg (24 h): 278 mg/dL
Hb (24 h): 13.3 g/dL
Ht (24 h): 41.1%
Lym (24 h): 76.4%
MCH (24 h): 20.7 pg
MCHC (24 h): 32.4%
MCV (24 h): 63.9 fL
Mono (24 h): 3.2%
Neu (24 h): 18.4%
PT (24 h): 13.1 s
Plat (24 h): 127.4 x10_4/uL
RBC (24 h): 642.4 x10_4/ul
Ret (24 h): 7.4%
WBC (24 h): 96.8 x10_2/uL
KIDNEY_L (24 h): 0.9 g
KIDNEY_R (24 h): 0.9 g
KIDNEY_TOTAL (24 h): 1.8 g
LIVER (24 h): 9.8 g
A/G (24 h): 0.9
ALP (24 h): 1626.2 IU/L
ALT (24 h): 39.6 IU/L
AST (24 h): 77.2 IU/L
BUN (24 h): 14.6 mg/dL
CRE (24 h): 0.2 mg/dL
Ca (24 h): 10.9 mg/dL
Cl (24 h): 106.4 meq/L
DBIL (24 h): 0.012 mg/dL
GLC (24 h): 186.2 mg/dL
IP (24 h): 7.5 mg/dL
K (24 h): 4.2 meq/L
LDH (24 h): 98.2 IU/L
Na (24 h): 141.6 meq/L
PL (24 h): 140 mg/dL
RALB (24 h): 2.5 g/dL
TBIL (24 h): 0.058 mg/dL
TC (24 h): 74 mg/dL
TG (24 h): 96.8 mg/dL
TP (24 h): 5.4 g/dL
gamma-GTP (24 h): 1 IU/L
